Assay results reported in patent US12568972B2, “Pyridazinol compounds and derivatives, preparation methods, herbicidal compositions and applications thereof” (Qingdao Kingagroot Chemical Compound Co., Ltd., priority 2018, dated 2026).

How the values were obtained:
Assay in all cases: Post-emergence test, weed control effect
Assay type in all cases: in vivo
Conditions in all cases: after 3 weeks
Chenopodiaceae = tested on: Chenopodiaceae
Description: (§1) The activity level standard of harmful plant destruction (i.e. growth inhibition rate) is as follows: • Level 10: completely dead; • Level 9: above 90% growth inhibition rate; • Level 8: above 80% growth inhibition rate; • Level 7: above 70% growth inhibition rate; • Level 6: above 60% growth inhibition rate; • Level 5: above 50% growth inhibition rate; • Level 4: above 40% growth inhibition rate; • Level 3: above 30% growth inhibition rate; • Level 2: above 20% growth inhibition rate; • Level 1: below 20% growth inhibition rate; • Level 0: no effect.
(§2) The above described growth inhibition rates are fresh weight inhibition rates.
(§3) Experiment of post-emergence test: monocotyledonous and dicotyledonous weed seeds as well as main crop seeds (i.e., wheat, corn, rice, soybean, cotton, oilseed rape, millet and sorghum) were put into a plastic pot loaded with soil, then covered with 0.5-2 cm of soil, and the seeds were allowed to grow in good greenhouse environment. The test plants were treated at 2-3 leaf stage 2-3 weeks after sowing. The test compounds of the invention were dissolved in acetone respectively, then added with Tween-80 and diluted by a certain amount of water to give solutions with certain concentrations, and added with 80% vegetable oil methyl ester synergist at 1500 g/ha. The solution was sprayed to the plants with a sprayer. The plants were cultured for 3 weeks in the greenhouse.

Amaranthus retroflexus = tested on: Amaranthus retroflexus
Description: as §1, §2, §3

Rorippa indica = tested on: Rorippa indica
Description: as §1, §2, §3

Veronica polita = tested on: Veronica polita
Description: as §1, §2, §3

N#Cc1cncc(-c2nnc(C(F)(F)F)cc2O)c1 [Compound 984]
10: weed control effect (activity level), Chenopodiaceae (Chenopodiaceae; Dose 3000 g/ha) | weed control effect (activity level), Amaranthus retroflexus (Amaranthus retroflexus; Dose 3000 g/ha) | weed control effect (activity level), Rorippa indica (Rorippa indica; Dose 3000 g/ha) | weed control effect (activity level), Veronica polita (Veronica polita; Dose 3000 g/ha)

CC/C(C)=N\Oc1cc(C(F)(F)F)nnc1-c1ccc(C)cc1 [Compound 1-170]
10: weed control effect, Chenopodiaceae (activity level) (Chenopodiaceae; Dose 3000 g/ha) | weed control effect, Amaranthus retroflexus (activity level) (Amaranthus retroflexus; Dose 3000 g/ha) | weed control effect, Rorippa indica (activity level) (Rorippa indica; Dose 3000 g/ha) | weed control effect, Veronica polita (activity level) (Veronica polita; Dose 3000 g/ha)

Oc1cc(C(F)(F)F)nnc1-c1cccc(I)c1 [Compound 29]
10: weed control effect (activity level), Chenopodiaceae (Chenopodiaceae; dose 1000 g/ha) | weed control effect (activity level), Amaranthus retroflexus (Amaranthus retroflexus; dose 1000 g/ha) | weed control effect (activity level), Rorippa indica (Rorippa indica; dose 1000 g/ha) | weed control effect (activity level), Veronica polita (Veronica polita; dose 1000 g/ha)

CCCOc1ccc(-c2nnc(C(F)(F)F)cc2O)cc1 [Compound 83]
10: weed control effect (activity level), Chenopodiaceae (Chenopodiaceae; dose 1000 g/ha) | weed control effect (activity level), Amaranthus retroflexus (Amaranthus retroflexus; dose 1000 g/ha) | weed control effect (activity level), Rorippa indica (Rorippa indica; dose 1000 g/ha) | weed control effect (activity level), Veronica polita (Veronica polita; dose 1000 g/ha)

O=C(CSc1ccccc1)Oc1cc(C(F)(F)F)nnc1-c1ccc(F)c(F)c1 [Compound 1-95]
10: weed control effect, Chenopodiaceae (activity level) (Chenopodiaceae; Dose 3000 g/ha) | weed control effect, Amaranthus retroflexus (activity level) (Amaranthus retroflexus; Dose 3000 g/ha) | weed control effect, Rorippa indica (activity level) (Rorippa indica; Dose 3000 g/ha) | weed control effect, Veronica polita (activity level) (Veronica polita; Dose 3000 g/ha)

O=S(=O)(Oc1cc(C(F)(F)F)nnc1-c1ccc(F)cc1)c1ccc(F)cc1 [Compound 1-134]
10: weed control effect, Chenopodiaceae (activity level) (Chenopodiaceae; Dose 3000 g/ha) | weed control effect, Amaranthus retroflexus (activity level) (Amaranthus retroflexus; Dose 3000 g/ha) | weed control effect, Rorippa indica (activity level) (Rorippa indica; Dose 3000 g/ha) | weed control effect, Veronica polita (activity level) (Veronica polita; Dose 3000 g/ha)

O=S(=O)(Oc1cc(C(F)(F)F)nnc1-c1ccc(C(F)(F)F)cc1)c1ccc2oncc2c1 [Compound 1-148]
10: weed control effect, Chenopodiaceae (activity level) (Chenopodiaceae; Dose 3000 g/ha) | weed control effect, Amaranthus retroflexus (activity level) (Amaranthus retroflexus; Dose 3000 g/ha) | weed control effect, Rorippa indica (activity level) (Rorippa indica; Dose 3000 g/ha) | weed control effect, Veronica polita (activity level) (Veronica polita; Dose 3000 g/ha)

Oc1cc(C(F)(F)F)nnc1-c1c(Cl)cccc1Cl [Compound 41]
10: weed control effect (activity level), Chenopodiaceae (Chenopodiaceae; dose 1000 g/ha) | weed control effect (activity level), Amaranthus retroflexus (Amaranthus retroflexus; dose 1000 g/ha) | weed control effect (activity level), Rorippa indica (Rorippa indica; dose 1000 g/ha) | weed control effect (activity level), Veronica polita (Veronica polita; dose 1000 g/ha)

O=C(COc1cc(C(F)(F)F)nnc1-c1ccc(F)cc1)c1ccccc1 [Compound 1-212]
10: weed control effect, Chenopodiaceae (activity level) (Chenopodiaceae; Dose 3000 g/ha) | weed control effect, Amaranthus retroflexus (activity level) (Amaranthus retroflexus; Dose 3000 g/ha) | weed control effect, Rorippa indica (activity level) (Rorippa indica; Dose 3000 g/ha) | weed control effect, Veronica polita (activity level) (Veronica polita; Dose 3000 g/ha)

Oc1cc(C(F)(F)F)nnc1-c1ccc2ncccc2c1 [Compound 714]
10: weed control effect (activity level), Chenopodiaceae (Chenopodiaceae; Dose 3000 g/ha) | weed control effect (activity level), Amaranthus retroflexus (Amaranthus retroflexus; Dose 3000 g/ha) | weed control effect (activity level), Rorippa indica (Rorippa indica; Dose 3000 g/ha) | weed control effect (activity level), Veronica polita (Veronica polita; Dose 3000 g/ha)

Oc1cc(C(F)(F)F)nnc1-c1cc(C(F)(F)F)co1 [Compound 418]
10: weed control effect (activity level), Chenopodiaceae (Chenopodiaceae; Dose 3000 g/ha) | weed control effect (activity level), Amaranthus retroflexus (Amaranthus retroflexus; Dose 3000 g/ha) | weed control effect (activity level), Rorippa indica (Rorippa indica; Dose 3000 g/ha) | weed control effect (activity level), Veronica polita (Veronica polita; Dose 3000 g/ha)

Oc1cc(C(F)(F)F)nnc1-c1cncc(C(F)(F)F)c1 [Compound 977]
10: weed control effect (activity level), Chenopodiaceae (Chenopodiaceae; Dose 3000 g/ha) | weed control effect (activity level), Amaranthus retroflexus (Amaranthus retroflexus; Dose 3000 g/ha) | weed control effect (activity level), Rorippa indica (Rorippa indica; Dose 3000 g/ha) | weed control effect (activity level), Veronica polita (Veronica polita; Dose 3000 g/ha)

Oc1cc(C(F)(F)F)nnc1-c1c(Cl)ccnc1Cl [Compound 993]
10: weed control effect (activity level), Chenopodiaceae (Chenopodiaceae; Dose 3000 g/ha) | weed control effect (activity level), Amaranthus retroflexus (Amaranthus retroflexus; Dose 3000 g/ha) | weed control effect (activity level), Rorippa indica (Rorippa indica; Dose 3000 g/ha) | weed control effect (activity level), Veronica polita (Veronica polita; Dose 3000 g/ha)

Cn1cc(S(=O)(=O)Oc2cc(C(F)(F)F)nnc2-c2cccc(F)c2)cn1 [Compound 1-151]
10: weed control effect, Chenopodiaceae (activity level) (Chenopodiaceae; Dose 3000 g/ha) | weed control effect, Amaranthus retroflexus (activity level) (Amaranthus retroflexus; Dose 3000 g/ha) | weed control effect, Rorippa indica (activity level) (Rorippa indica; Dose 3000 g/ha) | weed control effect, Veronica polita (activity level) (Veronica polita; Dose 3000 g/ha)

Oc1cc(C(F)(F)F)nnc1-c1cccc2cc[nH]c12 [Compound 589]
10: weed control effect (activity level), Chenopodiaceae (Chenopodiaceae; Dose 3000 g/ha) | weed control effect (activity level), Amaranthus retroflexus (Amaranthus retroflexus; Dose 3000 g/ha) | weed control effect (activity level), Rorippa indica (Rorippa indica; Dose 3000 g/ha) | weed control effect (activity level), Veronica polita (Veronica polita; Dose 3000 g/ha)

CCOC(=O)CCCOc1cc(C(F)(F)F)nnc1-c1ccc(F)cc1 [Compound 1-207]
10: weed control effect, Chenopodiaceae (activity level) (Chenopodiaceae; Dose 3000 g/ha) | weed control effect, Amaranthus retroflexus (activity level) (Amaranthus retroflexus; Dose 3000 g/ha) | weed control effect, Rorippa indica (activity level) (Rorippa indica; Dose 3000 g/ha) | weed control effect, Veronica polita (activity level) (Veronica polita; Dose 3000 g/ha)
